Like-named read-outs stand apart in the source and are kept apart here.
What was measured:
Test in all cases: Anti-proliferative assay, cell-titre luminescent reagent, 72 h (GVK-BIO)
Type in all cases: cell-based
[1] = test system: DU145 prostate cancer cells; settings: Homo sapiens
Procedure: (§1) The ability of compounds 4001, 4002, 4008, 4010, 4011, 4013-4015, 4018, 4026, 4045-4113 and 4115-4127 to inhibit the proliferation of cancer cells representative of neuroblastoma, melanoma, prostate cancer, colorectal cancer, non-small cell lung carcinoma, and triple negative breast cancer was assessed. These studies were conducted by contract research (GVK-BIO). Briefly, a pre-determined number of cells as calculated from cell growth assays for each of the cell lines employed were seeded into their respective culture medium (using ATCC culture parameters—http://www.atcc.org) and cultured for 24 h at 37° C. and 5% CO2 in 96-well culture plates. Once attached, each cell line was then exposed to various concentrations of each respective analogue (30, 3, 0.3 and 0.03 μM for compounds in Tables 2, 3 and 4; 30, 10, 3, 1, 0.3 and 0.1 μM for compounds in Table 5), cultured for a further 72 h and exposed to cell-titre luminescent reagent (100 μL/well) for a further 30 min). Luminescence was captured using an EnVision multilabel reader and the data for each analogue concentration compared against no treatment control. For compounds in Tables 2-4, semi-log plots of Percent of Control versus concentration were prepared and IC50 determined using linear regression analysis. For compounds in Table 5, cell viability was normalized to control (vehicle alone) and dose-response curves, and half maximal effective concentration (EC50) values were determined using Graph Pad Prism 6 (nonlinear regression sigmoidal dose-response variable slope).

[2] = test system: SK-N-SH neuroblastoma cells; settings: Homo sapiens
Procedure: as §1

[3] = test system: CaCo2 colorectal cancer cells; settings: Homo sapiens
Procedure: as §1

[4] = test system: PC3 prostate cancer cells
Procedure: as §1

[5] = test system: MDA-MB-231 triple negative breast cancer cells; settings: Homo sapiens
Procedure: as §1

[6] = test system: A549 non-small cell lung carcinoma cells; settings: Homo sapiens, read-out: IC50/μM Lung (NSLC) A549
Procedure: as §1

[7] = test system: SK-Mel-28 melanoma cells; settings: Homo sapiens
Procedure: as §1

[8] = DU-145, 72 h, 30, 3, 0.3 and 0.03 μM, linear regression (Tables 2-4)
[9] = SK-N-SH, 30, 3, 0.3 and 0.03 μM, linear regression (Tables 2-4)
[10] = Caco-2, 72 h, 30, 3, 0.3 and 0.03 μM, linear regression (Tables 2-4)
[11] = 30, 3, 0.3 and 0.03 μM, linear regression (Tables 2-4)
[12] = MDA-MB-231, 72 h, 30, 3, 0.3 and 0.03 μM, linear regression (Tables 2-4)
[13] = A549, 72 h, 30, 3, 0.3 and 0.03 μM, linear regression (Tables 2-4)
[14] = SK-MEL-28, 72 h, 30, 3, 0.3 and 0.03 μM, linear regression (Tables 2-4)
[15] = DU-145, 72 h, 30, 10, 3, 1, 0.3 and 0.1 μM, nonlinear regression (Table 5)
[16] = SK-N-SH, 30, 10, 3, 1, 0.3 and 0.1 μM, nonlinear regression (Table 5)
[17] = Caco-2, 72 h, 30, 10, 3, 1, 0.3 and 0.1 μM, nonlinear regression (Table 5)
[18] = 30, 10, 3, 1, 0.3 and 0.1 μM, nonlinear regression (Table 5)
[19] = MDA-MB-231, 72 h, 30, 10, 3, 1, 0.3 and 0.1 μM, nonlinear regression (Table 5)
[20] = A549, 72 h, 30, 10, 3, 1, 0.3 and 0.1 μM, nonlinear regression (Table 5)
[21] = SK-MEL-28, 72 h, 30, 10, 3, 1, 0.3 and 0.1 μM, nonlinear regression (Table 5)

| Structure (SMILES) | IC50 [1, 8] | IC50 [2, 9] | IC50 [3, 10] | IC50 [4, 11] | IC50 [5, 12] | IC50 [6, 13] | IC50 [7, 14] | IC50 [1, 15] | IC50 [2, 16] | IC50 [3, 17] | IC50 [4, 18] | IC50 [5, 19] | IC50 [6, 20] | IC50 [7, 21] |
| --- | --- | --- | --- | --- | --- | --- | --- | --- | --- | --- | --- | --- | --- | --- |
| Cc1c(C)n(CCCN(C)C)c2ccc(Nc3cccc(C(=O)Nc4cccc(F)c4)c3)cc12 [Compound 4075, 3-((1-(3-(dimethylamino)propyl)-2,3-dimethyl-1H-indol-5-yl)amino)-N-(3-fluorophenyl)benzamide] | 3 µM | 2.6 µM | 3.3 µM | 4.5 µM | 2.6 µM | 2.9 µM | 2.7 µM |  |  |  |  |  |  |  |
| COc1cccc(NC(=O)c2cccc(Nc3ccc4c(c3)c(C)c(C)n4CCCN(C)C)c2)c1 [Compound 4076, 3-((1-(3-(dimethylamino)propyl)-2,3-dimethyl-1H-indol-5-yl)amino)-N-(3-methoxyphenyl)benzamide] | 3.2 µM | 2.8 µM | 2.9 µM | 3.7 µM | 1.7 µM | 1.8 µM | 2.1 µM |  |  |  |  |  |  |  |
| CN(C)CCCn1ccc2cc(Cc3ccc(C(=O)Nc4ccc(F)cc4)cc3)ccc21 [Compound 4077, 4-((1-(3-(dimethylamino)propyl)-1H-indol-5-yl)methyl)-N-(4-fluorophenyl)benzamide] | 3.2 µM | 3.1 µM | 3.3 µM | 2.8 µM | 3.4 µM | 3.3 µM | 2.7 µM |  |  |  |  |  |  |  |
| COc1ccc(NC(=O)c2ccc(Cc3ccc4c(ccn4CCCN(C)C)c3)cc2)cc1 [Compound 4078, 4-((1-(3-(dimethylamino)propyl)-1H-indol-5-yl)methyl)-N-(4-methoxyphenyl)benzamide] | 1.4 µM | 6.5 µM | 3.6 µM | 1.2 µM | 1.6 µM | 1.4 µM | 1.9 µM |  |  |  |  |  |  |  |
| CN(C)CCCn1ccc2cc(Cc3ccc(C(=O)Nc4ccc5c(c4)OCO5)cc3)ccc21 [Compound 4079, N-(benzo[d][1, 3]dioxol-5-yl)-4-((1-(3-(dimethylamino)propyl)-1H-indol-5-yl)methyl)benzamide] | 3.1 µM | 2.9 µM | > 30 µM | 1.8 µM | 4.3 µM | 3.1 µM | 2.8 µM |  |  |  |  |  |  |  |
| CN(C)CCCn1ccc2cc(Cc3ccc(C(=O)Nc4cccc(F)c4)cc3)ccc21 [Compound 4080, 4-((1-(3-(dimethylamino)propyl)-1H-indol-5-yl)methyl)-N-(3-fluorophenyl)benzamide] | 3.5 µM | 2.8 µM | 3 µM | 3 µM | 3.2 µM | 3.1 µM | 3.1 µM |  |  |  |  |  |  |  |
| COc1cccc(NC(=O)c2ccc(Cc3ccc4c(ccn4CCCN(C)C)c3)cc2)c1 [Compound 4081, 4-((1-(3-(dimethylamino)propyl)-1H-indol-5-yl)methyl)-N-(3-methoxyphenyl)benzamide] | 2.9 µM | 1.6 µM | 3.1 µM | 2.1 µM | 2.5 µM | 2.9 µM | 2.3 µM |  |  |  |  |  |  |  |
| Cc1c(C)n(CCCN(C)C)c2ccc(Cc3ccc(C(=O)Nc4ccc(F)cc4)cc3)cc12 [Compound 4082, 4-((1-(3-(dimethylamino)propyl)-2,3-dimethyl-1H-indol-5-yl)methyl)-N-(4-fluorophenyl)benzamide] |  |  |  |  |  |  |  | 2.6 µM | 4.8 µM | 4 µM | 3.9 µM | 4.2 µM | 4.9 µM | 4.6 µM |
| COc1ccc(NC(=O)c2ccc(Cc3ccc4c(c3)c(C)c(C)n4CCCN(C)C)cc2)cc1 [Compound 4083, 4-((1-(3-(dimethylamino)propyl)-2,3-dimethyl-1H-indol-5-yl)methyl)-N-(4-methoxyphenyl)benzamide] |  |  |  |  |  |  |  | 5.1 µM | 3.3 µM | 11.9 µM | 13.2 µM | 13.1 µM | 11.2 µM | 4.7 µM |
| Cc1c(C)n(CCCN(C)C)c2ccc(Cc3ccc(C(=O)Nc4ccc5c(c4)OCO5)cc3)cc12 [Compound 4084, N-(benzo[d][1,3]dioxol-5-yl)-4-((1-(3-(dimethylamino)propyl)-2,3-dimethyl-1H-indol-5-yl)methyl)benzamide] |  |  |  |  |  |  |  | 4.8 µM | 10.6 µM | 7.1 µM | 3.5 µM | 6.5 µM | 6 µM | 5.5 µM |
| Cc1c(C)n(CCCN(C)C)c2ccc(Cc3ccc(C(=O)Nc4cccc(F)c4)cc3)cc12 [Compound 4085, 4-((1-(3-(dimethylamino)propyl)-2,3-dimethyl-1H-indol-5-yl)methyl)-N-(3-fluorophenyl)benzamide] | 11 µM | 9.8 µM | 10.9 µM | 10.1 µM | 11.2 µM | 10.1 µM | 10.5 µM |  |  |  |  |  |  |  |
| COc1cccc(NC(=O)c2ccc(Cc3ccc4c(c3)c(C)c(C)n4CCCN(C)C)cc2)c1 [Compound 4086, 4-((1-(3-(dimethylamino)propyl)-2,3-dimethyl-1H-indol-5-yl)methyl)-N-(3-methoxyphenyl)benzamide] |  |  |  |  |  |  |  | 4.3 µM | 5.7 µM | 7.6 µM | 4.8 µM | 6.2 µM | 5 µM | 5.2 µM |
| Cc1c(C)n(CCCN(C)C)c2ccc(Cc3ccc(C(=O)Nc4ccccc4)cc3)cc12 [Compound 4087, 4-((1-(3-(dimethylamino)propyl)-2,3-dimethyl-1H-indol-5-yl)methyl)-N-phenylbenzamide] |  |  |  |  |  |  |  | 7.1 µM | 5.6 µM | 23.1 µM | 7.4 µM | 7.5 µM | 8.9 µM | 4.8 µM |
| CN(C)CCCn1ccc2cc(Oc3ccc(C(=O)Nc4ccc(F)cc4)cc3)ccc21 [Compound 4088, 4-((1-(3-(dimethylamino)propyl)-1H-indol-5-yl)oxy)-N-(4-fluorophenyl)benzamide] | 3.3 µM | 3.4 µM | 4.1 µM | 3.5 µM | 3.8 µM | 3.4 µM | 4.3 µM |  |  |  |  |  |  |  |
| COc1ccc(NC(=O)c2ccc(Oc3ccc4c(ccn4CCCN(C)C)c3)cc2)cc1 [Compound 4089, 4-((1-(3-(dimethylamino)propyl)-1H-indol-5-yl)oxy)-N-(4-methoxyphenyl)benzamide] |  |  |  |  |  |  |  | 4.4 µM | 4.4 µM | 13.2 µM | 4.4 µM | 5.2 µM | 7.7 µM | 4.3 µM |
| CN(C)CCCn1ccc2cc(Oc3ccc(C(=O)Nc4ccc5c(c4)OCO5)cc3)ccc21 [Compound 4090, N-(benzo[d][1,3]dioxol-5-yl)-4-((1-(3-(dimethylamino)propyl)-1H-indol-5-yl)oxy)benzamide] |  |  |  |  |  |  |  | 4.6 µM | 6.3 µM | 5.3 µM | 2.5 µM | 9.6 µM | 8.4 µM | 7.2 µM |
| CN(C)CCCn1ccc2cc(Oc3ccc(C(=O)Nc4cccc(F)c4)cc3)ccc21 [Compound 4091, 4-((1-(3-(dimethylamino)propyl)-1H-indol-5-yl)oxy)-N-(3-fluorophenyl)benzamide] |  |  |  |  |  |  |  | 10.6 µM | 9.7 µM | 10.2 µM | 19.6 µM | 28.9 µM | 9.5 µM | 15.4 µM |
